In general, amount remaining refers to the share of the starting amount still present when the sample was taken.

Data set [1] in a line: FTNIR / HPLC analysis of creatine and creatinine, as is or dry basis. It counts as physicochemical. Particulars: before digestion simulation. How it is done: Tests on the coated Tablet prepared as described in Example 2 but with addition of 6% by tablet weight of PV/AP, creatine monohydrate powder and capsules of creatine monohydrate were carried out
These tests were done on an "AS IS or DRY BASIS.
Identification performed by FINIR, against in-house external library standards obtained from Sigma & produced by HPLC. / Quantification by FTNIR against external library standards obtained from Sigma & produced by HPLC
Bran & Luebbe InfraProver II FTNIR
Analysis performed by HPLC using Intersil ODS-2 5um (250x4.dmm) and 25 min. gradient elution with 0.1% phosphoric acid buffer in H2O and 0.1% phosphoric acid in acetonitrile. External reference standards obtained from Sigma-Aldrich.

A short description of data set [2]: Digestion simulation in stomacher at pH 3 for 60 minutes, total creatine and creatinine levels. It counts as physicochemical. How it is done:
1 capsule of creatine (500 mg) and 500 mg of powder was used along with 1 tablet of 500 mg of Sustained Released Creatine.
All 3 products were placed in a stomacher at pH 3 for 60 minutes to simulate digestion. Stomacher contained 1 liter of fluid with pH being adjusted with hydrochloric acid to simulate digestion.
After 60 minutes of digestion simulation in stomacher, all 3 products were tested for: • Total Creatine levels • Total Creatinine levels

A short description of data set [3]: Stamina and strength of athletes taking creatine (free weights and hammer strength machines). Particulars: two subjects. The data set is classed as in vivo, human. Here is the method:
Week 1-4: Two subjects were administered creatine monohydrate in powder form for four weeks. 2 grams were taken in the A.M. before breakfast.
No changes were made to diet and athletes were working out 4 times per week.
Stamina & Strength levels were monitored at the beginning of the study and every workout for 4 weeks.
A combination of free weights and hammer strength machines were used.
Week 5-8. Athletes discontinued creatine use. After 1 week the stomach bloat, bloating of the ankles and wrist, along with diarrhea and loose stools disappeared. About a 1% increase in strength was again noticed by the end of week 8, due to old fashioned hard work.
Week 9-12. Athletes were administered one 750 mg sustained released tablet in the a.m. and one 750 mg tablet in the afternoon. The breakdown of these tablets were 9 hours.

The next data set is described as follows: physchem. Particulars: simulated gastric solution, pH 4. It counts as physicochemical. How it is done: TABLE 2 Change in creatine with time at pH 4
The determination was based upon formation of creatinine under buffered incubation conditions. A solution of 1% creatine in simulated gastric solution (0.5% betain/pepsin in 1M HEPES buffer pH controlled with 5M HC1 and 5N NaOH). Creatinine determination performed by PDA spectrophotometer in kinetic mode, scanning at 15 sec intervals with an integration time of 0.5 sec. Detection in 1 cm path length flow call at 37°C with test analyte flowing at 1 ml/min. Reagents obtained from Sigma-Aldrich.

Where [4] appears, read: 2 grams in the A.M. before breakfast, week 1-4.

SMILES strings stand for the structures.

Regarding `CN(CC(=O)O)C(=N)N.O` [Creatine Powder, creatine monohydrate], in data set [1], the Creatine entry was “Creatine 100.1%” and the Creatinine result is reported as “Creatinine <200ppm”. Further, the “pH of Stomacher after addition of product” value in data set [2] (500 mg elemental creatine added to stomacher at pH 3, 1 liter of fluid) is reported as 3.5. Besides, the “creatine converted to creatinine after 60 minutes (in words)” value in data set [2] (500 mg, stomacher at pH 3, 60 minutes) is listed as “all creatine being converted to creatinine”. Besides, the degraded at 1 h in data set [2] (acidified fluid, 500 mg elemental creatine, stomacher at pH 3, 60 minutes, read-out: Total conversion to Creatinine after 60 minutes of digestion) was 100%. Further, in data set [3] (setting [4]), the side effects result is “Stomach bloating, bloating of the ankles and wrist, along with diarrhea and loose stools”; the stamina increase entry is on record as “did not notice any stamina increase”. In addition, in data set [3] (2 grams in the A.M. before breakfast, week 1-4, not attributed to creatine), the increase in strength is recorded as about 1%. Also, in data set [3] (2 grams in the A.M., week two through week four), the “over all sense of tiredness” value was “set in after week two and lasted through week four”.

As for `CN(CC(=O)O)C(=N)N` [creatine], in the data set “physchem”, the share remaining at 15 s is 94%, the share remaining at 0.5 min was 86%, the amount remaining at 45 s was 75% and the share remaining at 1 min was 66%. In the data set “physchem”, this molecule displayed a fraction remaining at 75 s of 57%, an amount remaining at 0.025 h of 49%, a share remaining at 105 s of 38% and a share remaining at 2 min of 31%. In the data set “physchem”, this molecule yielded an amount remaining at 135 s of 21%, a share remaining at 2.5 min of 16%, a fraction remaining at 165 s of 6% and a fraction remaining at 0.05 h of 0.5%.

The values are drawn from patent EP1859794A1, “Sustained release supplements” (priority 2006, dated 2007).
